Entries after “also recorded” stand apart in the source; their conditions may differ.
Legend:
[1] = system: 3D vascularized tissue containing GFP positive primary endothelial cells, pericytes, and fibroblasts; details: a week of VEGF treatment (85 ng/ml) vs 3 days then basal 1.7 ng/ml
Description: (A) 8 bit images of printed GFP endothelial cells (white) were quantified. Five line probes were placed in each gap between stripes of the printed geometry. Each line probe detects peaks (hollow circles) of GFP intensity above a threshold. Line 1 and 6, 2 and 5, 3 and 4 indicate edge, intermediate, and center of each gap, respectively. (B) Two experimental groups are compared. […] Angiogenesis was quantified as a number of GFP peaks in each line probe. The quantification of angiogenesis was performed between groups and time frames of G (n=5; number of printings). Error bars indicates standard error and mean. Two-way ANOVA and Bonferroni post-hoc pair comparison. † indicates statistical significance (p<0.05) between groups (left figure) and day 5-6 and day 7-8 (right figure). # and * indicates statistical significance (p<0.05) in day 3-4 vs. day 5-6 and day 3-4 vs. day 7-8, respectively.

RPE-“choroid” tissues = assay: Hypoxia disease model: DMOG treatment of bioprinted RPE-"choroid" tissue, confocal imaging; type: cell-based, human; details: two weeks of treatment
Experimental: FIGS. 18A-18I are digital images showing the effect of hypoxia on “choriocapillaris.” RPE-“choroid” tissues were treated with DMOG (100 μM) after 4 weeks from printing. DMOG inhibits prolyl-4-hydroxylase and induces hypoxia-inducible factor. DMOG was treated on only apical region of RPE or on both apical region of RPE and “choroid” sides. After two weeks of DMOG treatment, tissues were fixed in 4% PFA. Z-stack confocal images were separated into three sections as RPE (A-C), subRPE/scaffold (D-F), and “choroid” (G-I). RPE was recognized by Hoescht (nuclei). Choroid was stained with CD31. Scale bar=100 μm.
It was tested if hypoxic condition of RPE or RPE-“choroid” plays a role in “choroidal” neovascularization. Hypoxia has been reported as a crucial factor to induce wet AMD. A chemical compound, DMOG, was used to induce hypoxia-inducible factor in RPE or every cell type within the tissue.

Compound | growth and viability of microvascular network [1] | vascularization in sub-RPE region (CD31 stain) (RPE-“choroid” tissues; DMOG 100 μM from 4 weeks after printing, on apical region of RPE only or on both RPE and “choroid” sides) | changes of the RPE monolayer (RPE-“choroid” tissues; DMOG 100 μM, RPE recognized by Hoescht)
VEGF | significantly enhanced growth and viability of microvascular network | – | –
COC(=O)CNC(=O)C(=O)OC [DMOG] | – | significantly induced vascularization in sub-RPE region; also recorded: induced vascularization in the subRPE region | did not show noticeable changes
